Data taken from patent US10487093B2, “Heterocyclic compounds, in particular 2-oxo-4,4,5,5,6,6,7,7-octahydrobenzoxazole derivatives, and their use as antibacterial compounds” (priority 2016, dated 2019).
In brackets after ≈: the same amount, converted by molar mass.

Experiments:
[1] = test system: Acinetobacter baumannii NCTC 13420; assay: MIC, broth microdilution (CLSI) versus planktonic bacteria; type: cell-based; details: NCTC13420; Acinetobacter baumannii NCTC 13420; 16-20 h; mode of three independent experiments; read-out: MIC, Ab NCTC 13420
[2] = test system: Acinetobacter baumannii ATCC 19606; assay: as above; type: cell-based; details: ATCC19606; Acinetobacter baumannii ATCC 19606; 16-20 h; mode of three independent experiments; read-out: MIC, Ab ATCC 19606
[3] = test system: Enterobacter cloacae NCTC 13406; assay: as above; type: cell-based; details: NCTC13406; Enterobacter cloacae NCTC 13406; 16-20 h; mode of three independent experiments; read-out: MIC, Ecl NCTC 13406
[4] = test system: Escherichia coli ATCC 25922; assay: as above; type: cell-based; details: ATCC25922; Escherichia coli ATCC 25922; 16-20 h; mode of three independent experiments; read-out: MIC, Ec ATCC 25922
[5] = test system: E. coli ATCC BAA-2452; assay: as above; type: cell-based; details: Escherichia coli ATCC BAA-2452; 16-20 h; mode of three independent experiments; read-out: MIC, Ec ATCC BAA 2452
[6] = test system: E. coli NCTC 13476; assay: as above; type: cell-based; details: NCTC13476; Escherichia coli NCTC 13476; 16-20 h; mode of three independent experiments; read-out: MIC, Ec NCTC 13476
[7] = test system: E. coli MG1655; assay: as above; type: cell-based, Escherichia coli; details: Escherichia coli, MG1655, read-out: MIC, Ec MG1655 WT
[8] = test system: Haemophilus influenzae ATCC 49247; assay: as above; type: cell-based; details: ATCC49247; Haemophilus influenzae ATCC 49247; 16-20 h; mode of three independent experiments; read-out: MIC, Hi ATCC 49247
[9] = test system: Pseudomonas aeruginosa ATCC 27853; assay: as above; type: cell-based; details: ATCC27853; Pseudomonas aeruginosa ATCC 27853; 16-20 h; mode of three independent experiments; read-out: MIC, Pa ATCC 27853
[10] = test system: Staphylococcus aureus ATCC 29213; assay: as above; type: cell-based; details: ATCC29213; Staphylococcus aureus ATCC 29213; 16-20 h; mode of three independent experiments; read-out: MIC, Sa ATCC 29213
[11] = test system: Enterococcus faecalis ATCC 29212; assay: as above; type: cell-based; details: ATCC29212, 16-20 h, mode of three independent experiments, read-out: MIC, Ef ATCC 29212
[12] = test system: Enterococcus faecium ATCC 19434; assay: as above; type: cell-based; details: ATCC19434, 16-20 h, mode of three independent experiments, read-out: MIC, Efm ATCC 19434
[13] = test system: fluoroquinolone-resistant Enterococcus faecium ATCC 700221; assay: as above; type: cell-based; details: ATCC700221, 16-20 h, mode of three independent experiments, read-out: MIC, Efm ATCC 700221
[14] = test system: Streptococcus pneumoniae ATCC 49619; assay: as above; type: cell-based; details: ATCC49619; Streptococcus pneumoniae ATCC 49619; 16-20 h; mode of three independent experiments; read-out: MIC, Sp ATCC 49619
[15] = test system: E. coli MG1655 S83L; type: cell-based, Escherichia coli; details: compared to the isogenic parent strain E. coli MG1655; S83L mutation on DNA gyrase subunit GyrA
[16] = test system: E. coli MG1655 D87G; type: cell-based, Escherichia coli; details: compared to the isogenic parent strain E. coli MG1655; D87G mutation on DNA gyrase subunit GyrA
[17] = test system: human hepatic cell line (HepG2 ATCC HB-8065); assay: Human cell viability assay (CellTiter-Glo); details: Homo sapiens, HepG2, 24 h, read-out: IC50 (μg/mL) HepG2

Row | Compound | MIC [1] | MIC [2] | MIC [3] | MIC [4] | MIC [5] | MIC [6] | MIC [7] | MIC [8] | MIC [9] | MIC [10] | MIC [11] | MIC [12] | MIC [13] | MIC [14] | Fold increase in MIC, E. coli MG1655 S83L [15] | Fold increase in MIC, E. coli MG1655 D87G [16] | IC50 [17]
1 | N#Cc1ccc2ccc(=O)n(CCN[C@@H]3CC[C@@H]4[C@@H](C3)OC(=O)N4c3ccc4c(n3)NC(=O)CO4)c2c1 [Compound 59, 1-(2-{[(3aR,6R,7aR)-2-oxo-3-{3-oxo-2H,3H,4H-pyrido[3,2-b][1,4]oxazin-6-yl}-octahydro-1,3-benzoxazol-6-yl]amino}ethyl)-2-oxo-1,2-dihydroquinoline-7-carbonitrile] | < 1 µg/mL | < 1 µg/mL | < 1 µg/mL | < 1 µg/mL | < 1 µg/mL | < 1 µg/mL | < 1 µg/mL | < 1 µg/mL | < 1 µg/mL | < 1 µg/mL | < 1 µg/mL | < 1 µg/mL | < 1 µg/mL | < 1 µg/mL | 1 fold | 1 fold | 10 to 100 µg/mL (≈ 20 to 200 µM)
2 | N#Cc1cccc(-c2cccc(CN[C@@H]3CC[C@@H]4[C@@H](C3)OC(=O)N4c3ccc4c(n3)NC(=O)CO4)c2O)n1 [Compound 40, 6-[3-({[(3aR,6R,7aR)-2-oxo-3-{3-oxo-2H,3H,4H-pyrido[3,2-b][1,4]oxazin-6-yl}-octahydro-1,3-benzoxazol-6-yl]amino}methyl)-2-hydroxyphenyl]pyridine-2-carbonitrile] | < 1 µg/mL | < 1 µg/mL | < 1 µg/mL | < 1 µg/mL | < 1 µg/mL | < 1 µg/mL | < 1 µg/mL | < 1 µg/mL | < 1 µg/mL | < 1 µg/mL | < 1 µg/mL | < 1 µg/mL | < 1 µg/mL | 1 to 10 µg/mL (≈ 1.95 to 19.5 µM) | 1 fold | 1 fold | 10 to 100 µg/mL (≈ 19.5 to 195 µM)
3 | COc1ccc2ccc(=O)n(CCN[C@H]3CC[C@H]4[C@H](C3)OC(=O)N4c3ccc4c(n3)NC(=O)CO4)c2n1 [Compound 29, 1-(2-{[(3aS,6S,7aS)-2-oxo-3-{3-oxo-2H,3H,4H-pyrido[3,2-b][1,4]oxazin-6-yl}-octahydro-1,3-benzoxazol-6-yl]amino}ethyl)-7-methoxy-1,2-dihydro-1,8-naphthyridin-2-one] | < 1 µg/mL | < 1 µg/mL | < 1 µg/mL | < 1 µg/mL | < 1 µg/mL |  | < 1 µg/mL | < 1 µg/mL | < 1 µg/mL | < 1 µg/mL | < 1 µg/mL | < 1 µg/mL | < 1 µg/mL | < 1 µg/mL | 1 fold | 2 fold | 10 to 100 µg/mL (≈ 19.7 to 197 µM)
4 | O=C1COc2ccc(N3C(=O)O[C@H]4C[C@@H](NCCn5c(=O)cnc6cc(F)c(F)cc65)CC[C@@H]43)nc2N1 [Compound 34, 1-(2-{[(3aS,6S,7aS)-2-oxo-3-{3-oxo-2H,3H,4H-pyrido[3,2-b][1,4]oxazin-6-yl}-octahydro-1,3-benzoxazol-6-yl]amino}ethyl)-6,7-difluoro-1,2-dihydroquinoxalin-2-one] | < 1 µg/mL | < 1 µg/mL | < 1 µg/mL | < 1 µg/mL | < 1 µg/mL | < 1 µg/mL | < 1 µg/mL | < 1 µg/mL | 1 to 10 µg/mL (≈ 1.95 to 19.5 µM) | < 1 µg/mL | < 1 µg/mL | < 1 µg/mL | < 1 µg/mL | < 1 µg/mL | 1 fold | 2 fold | 
5 | COc1cnc2ccc(=O)n(CCN[C@H]3CC[C@H]4[C@H](C3)OC(=O)N4c3ccc4c(n3)NC(=O)CS4)c2c1 [Compound 81, 1-(2-{[(3aS,6S,7aS)-2-oxo-3-{3-oxo-2H,3H,4H-pyrido[3,2-b][1,4]thiazin-6-yl}-octahydro-1,3-benzoxazol-6-yl]amino}ethyl)-7-methoxy-1,2-dihydro-1,5-naphthyridin-2-one] | < 1 µg/mL | < 1 µg/mL | < 1 µg/mL | < 1 µg/mL | < 1 µg/mL | < 1 µg/mL | < 1 µg/mL | < 1 µg/mL | 1 to 10 µg/mL (≈ 1.91 to 19.1 µM) | < 1 µg/mL | < 1 µg/mL | < 1 µg/mL | < 1 µg/mL | < 1 µg/mL | 1 fold | 1 fold | 10 to 100 µg/mL (≈ 19.1 to 191 µM)
6 | COc1cccc(-c2cccc(CN[C@@H]3CC[C@@H]4[C@@H](C3)OC(=O)N4c3ccc4c(n3)NC(=O)CO4)c2)n1 [Compound 80, (3aR,6R,7aR)-6-({[3-(6-methoxypyridin-2-yl)phenyl]methyl}amino)-3-{3-oxo-2H,3H,4H-pyrido[3,2-b][1,4]oxazin-6-yl}-octahydro-1,3-benzoxazol-2-one] | < 1 µg/mL | < 1 µg/mL | 1 to 10 µg/mL (≈ 1.99 to 19.9 µM) | < 1 µg/mL | < 1 µg/mL | < 1 µg/mL | < 1 µg/mL | < 1 µg/mL | 1 to 10 µg/mL (≈ 1.99 to 19.9 µM) | < 1 µg/mL | < 1 µg/mL | 1 to 10 µg/mL (≈ 1.99 to 19.9 µM) | 1 to 10 µg/mL (≈ 1.99 to 19.9 µM) | 1 to 10 µg/mL (≈ 1.99 to 19.9 µM) | 1 fold | 1 fold | 10 to 100 µg/mL (≈ 19.9 to 199 µM)
7 | COc1ccc2ccc(=O)n(CCN[C@H]3CC[C@H]4[C@H](C3)OC(=O)N4c3ccc4c(n3)NC(=O)CO4)c2c1 [Compound 102, 1-(2-{[(3aS,6S,7aS)-2-oxo-3-{3-oxo-2H,3H,4H-pyrido[3,2-b][1,4]oxazin-6-yl}-octahydro-1,3-benzoxazol-6-yl]amino}ethyl)-7-methoxy-1,2-dihydroquinolin-2-one] | < 1 µg/mL | < 1 µg/mL | < 1 µg/mL | < 1 µg/mL | < 1 µg/mL | < 1 µg/mL | < 1 µg/mL |  | 1 to 10 µg/mL (≈ 1.98 to 19.8 µM) | < 1 µg/mL | < 1 µg/mL | < 1 µg/mL | < 1 µg/mL | < 1 µg/mL | 2 fold | 2 fold | 10 to 100 µg/mL (≈ 19.8 to 198 µM)
8 | COc1ccc2ncc(=O)n(CCNC3CCC4C(C3)OC(=O)N4c3ccc4c(n3)NC(=O)CO4)c2n1 (stereo in doubt) [Compound 43, (3aR,6R,7aR)-6-[(2-{6-methoxy-3-oxo-3H,4H-pyrido[2,3-b]pyrazin-4-yl}ethyl)amino]-3-{3-oxo-2H,3H,4H-pyrido[3,2-b][1,4]oxazin-6-yl}-octahydro-1,3-benzoxazol-2-one] | < 1 µg/mL | < 1 µg/mL | < 1 µg/mL | < 1 µg/mL | < 1 µg/mL | < 1 µg/mL | < 1 µg/mL | < 1 µg/mL | < 1 µg/mL | < 1 µg/mL | < 1 µg/mL | < 1 µg/mL | < 1 µg/mL | < 1 µg/mL | 1 fold | 0.5 fold | > 100 µg/mL
